Measurements published in US12685726B2, “Sulfoximines as inhibitors of NaV1.8” (Gruenenthal GmbH, priority 2022, dated 2026).

These compounds were tested against T1, human NaV 1.8 (Homo sapiens, UniProt Q9Y5Y9) (assay: Automated whole-cell patch clamp (Qube384) voltage-clamp recordings of sodium currents in HEK-NaV1.8 cell line). Settings: read-out: Potency category (human NaV 1.8 IC50).
T1 construct: expressed in transfected cells; host or cells: HEK (recombinant cell line)
Format: cell-based
Experimental: Electrophysiology: Voltage-Clamp Recordings
The following NaV1.8 recombinant cell line was used for recordings: HEK-NaV1.8 (NM_006514.1) with b3 (NM_018400.3).
Sodium currents were measured using the patch clamp technique in the whole-cell configuration using the Qube384 (Sophion A/S, Copenhagen, Denmark) automated voltage clamp platform. “Multi hole” plates were used for the cell line expressing NaV1.8 while “single hole” plates were used for the recombinant cell lines expressing the other subtypes. Appropriate filters (for minimum seal resistance and minimum current size) and series resistance compensation (for high quality sodium channel recordings) were applied. Data was collected at ambient room temperature or 19° C.
The recording extracellular solution contained (in mM): NaCl 145 mM, KCl 4 mM, CaCl2 2 mM, MgCl2 1 mM, HEPES 10 mM, Glucose 10 mM, pH 7.4 (NaOH). The intracellular recording solution contained (in mM): CsF 120 mM, CsCl 20 mM, NaCl 10 mM, EGTA 10 mM, HEPES 10 mM, pH 7.2 (CsOH). Currents were recorded at 25 kHz sampling frequency and filtered at 5 kHz. Series resistance compensation was applied at 65%.
Vehicle (VEH) is the control condition where cells are exposed to 0.3% DMSO without compound. All runs include VEH controls being exposed to the same voltage protocols to assess non-compound related phenomena such as run down and then used to isolate compound dependent effects on currents.
To check for state-dependent inhibition, the following voltage-sequence was applied every 20 seconds:
From a resting membrane potential of −120 mV, the first test pulse (P1; 20 ms to −10 mV) was applied to check for channels in the Resting State followed by a brief recovery (100 ms to −120 mV), then holding the membrane voltage to V1/2 (4 seconds at voltage to obtain half the channel at Rest and half Inactivated) with a subsequent second test pulse (P2; 20 ms to −10 mV) to check for channels in the Inactivated State, followed by another brief recovery (20 ms to −120 mV) and a final third test pulse (P3; 20 ms to −10 mV) to check for recovered channels.
To check for frequency-dependent inhibition, a 10 Hz protocol and a 20 Hz protocol were applied; namely,
From a resting membrane potential of −120 mV, 40-pulses (10 ms to −10 mV) was applied at 10 Hz (at 100 ms between pulses) and then at 20 Hz (at 50 ms between pulses).
Each parameter was recorded (P1, P2, P3, P40 from 10 Hz and P40 from 20 Hz) during a control period (lasting 5 minutes) when establishing the baseline and during compound period (lasting ~12 minutes) when test compound (or vehicle) was applied. For each parameter, the value at the end of the compound period was normalized to the vehicle baseline; as follows
To adjust for any variance in the Na^+ current signal during the compound period (owing to cumulative inactivation independent of compound or shifts in biophysics over time), a dedicated segment of the recording wells in each 384 plate were dedicated to having only vehicle exposure. These vehicle-only recordings were used to correct for any apparent “run-up” or “run-down” in the experiment.
The adjusted inhibition was calculated as follows: […]
Percent inhibition was determined and IC50 values were calculated using a 4 parameter logistic model within XLFit Software (IDBS, Boston MA): F
[formula] where A and B are the maximal and minimum inhibition respectively, C is the IC50 concentration and D is the (Hill) slope.

T1 sequence (Q9Y5Y9 whole entry): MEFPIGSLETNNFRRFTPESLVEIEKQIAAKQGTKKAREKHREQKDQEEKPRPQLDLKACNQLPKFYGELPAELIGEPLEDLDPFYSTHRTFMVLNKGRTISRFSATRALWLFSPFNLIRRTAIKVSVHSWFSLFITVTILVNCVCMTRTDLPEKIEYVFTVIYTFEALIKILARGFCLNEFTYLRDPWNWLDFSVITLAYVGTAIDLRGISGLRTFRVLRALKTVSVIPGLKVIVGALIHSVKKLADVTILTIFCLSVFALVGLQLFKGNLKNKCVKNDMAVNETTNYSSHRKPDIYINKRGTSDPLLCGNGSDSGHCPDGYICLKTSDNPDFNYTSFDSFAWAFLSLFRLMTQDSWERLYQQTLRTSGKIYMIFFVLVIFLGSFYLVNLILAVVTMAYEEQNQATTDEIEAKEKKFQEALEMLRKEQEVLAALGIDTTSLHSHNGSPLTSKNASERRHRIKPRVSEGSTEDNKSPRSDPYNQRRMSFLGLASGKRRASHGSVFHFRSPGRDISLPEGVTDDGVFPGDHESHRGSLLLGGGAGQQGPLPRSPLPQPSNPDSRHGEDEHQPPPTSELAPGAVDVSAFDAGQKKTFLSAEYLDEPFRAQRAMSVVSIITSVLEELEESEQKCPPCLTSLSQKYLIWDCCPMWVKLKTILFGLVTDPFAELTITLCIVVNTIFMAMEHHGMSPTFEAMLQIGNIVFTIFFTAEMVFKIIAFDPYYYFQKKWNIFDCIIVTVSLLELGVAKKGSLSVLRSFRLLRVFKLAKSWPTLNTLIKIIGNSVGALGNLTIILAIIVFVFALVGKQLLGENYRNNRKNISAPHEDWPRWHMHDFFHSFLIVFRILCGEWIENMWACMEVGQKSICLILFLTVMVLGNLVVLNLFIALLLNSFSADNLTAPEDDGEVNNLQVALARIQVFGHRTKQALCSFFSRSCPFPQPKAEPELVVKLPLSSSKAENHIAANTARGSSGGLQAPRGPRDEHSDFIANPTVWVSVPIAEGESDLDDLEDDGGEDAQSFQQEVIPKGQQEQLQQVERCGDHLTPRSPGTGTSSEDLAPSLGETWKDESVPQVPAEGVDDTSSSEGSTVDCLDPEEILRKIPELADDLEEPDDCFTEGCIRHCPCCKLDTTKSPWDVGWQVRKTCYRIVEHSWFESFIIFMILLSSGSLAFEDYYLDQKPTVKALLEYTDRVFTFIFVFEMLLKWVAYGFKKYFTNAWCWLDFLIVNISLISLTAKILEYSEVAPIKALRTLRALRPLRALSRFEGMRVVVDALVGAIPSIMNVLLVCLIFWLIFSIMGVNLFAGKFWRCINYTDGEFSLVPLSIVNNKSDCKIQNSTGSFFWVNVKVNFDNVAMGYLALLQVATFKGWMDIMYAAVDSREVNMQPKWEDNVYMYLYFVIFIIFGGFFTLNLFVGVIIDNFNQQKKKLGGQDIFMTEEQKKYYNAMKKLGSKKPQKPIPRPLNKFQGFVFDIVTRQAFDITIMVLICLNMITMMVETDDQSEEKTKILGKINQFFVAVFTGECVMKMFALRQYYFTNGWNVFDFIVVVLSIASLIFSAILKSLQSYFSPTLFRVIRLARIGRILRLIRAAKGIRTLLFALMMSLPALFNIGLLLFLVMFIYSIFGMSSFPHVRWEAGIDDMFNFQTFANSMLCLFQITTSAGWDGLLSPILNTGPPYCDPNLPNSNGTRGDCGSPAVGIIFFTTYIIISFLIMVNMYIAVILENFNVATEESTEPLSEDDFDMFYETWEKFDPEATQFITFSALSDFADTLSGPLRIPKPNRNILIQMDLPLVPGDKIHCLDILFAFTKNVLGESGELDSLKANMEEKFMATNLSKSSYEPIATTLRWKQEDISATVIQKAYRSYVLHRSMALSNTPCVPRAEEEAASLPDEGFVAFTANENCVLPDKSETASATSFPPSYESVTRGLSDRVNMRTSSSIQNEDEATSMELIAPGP

SMILES	IC50 [nM]
CC1(Cn2nc(C3(F)CC3)c(C(F)(F)F)c2C(=O)Nc2cccc(S(=N)(=O)C(F)F)c2)CC(F)(F)C1 (single isomer, unassigned) [Example 130a, 1-((3,3-Difluoro-1-methylcyclobutyl)methyl)-N-(3-(S-(difluoromethyl)sulfonimidoyl)phenyl)-3-(1-fluorocyclopropyl)-4-(trifluoromethyl)-1H-pyrazole-5-carboxamide]	≤ 100
CC1(Cn2nc(C3CCCC3)c(C(F)(F)F)c2C(=O)Nc2ccnc(S(C)(=N)=O)c2)CC(F)(F)C1 (single isomer, unassigned) [Example 59a, 3-Cyclopentyl-1-((3,3-difluoro-1-methylcyclobutyl)methyl)-N-(2-(S-methylsulfonimidoyl)pyridin-4-yl)-4-(trifluoromethyl)-1H-pyrazole-5-carboxamide]	≤ 100
CC1(Cn2nc(C3CC3)c(C(F)(F)F)c2C(=O)Nc2cnnc(S(C)(=N)=O)c2)CC(F)(F)C1 (single isomer, unassigned) [Example 47a, 3-cyclopropyl-1-((3,3-difluoro-1-methylcyclobutyl)methyl)-N-(6-(S-methylsulfonimidoyl)pyridazin-4-yl)-4-(trifluoromethyl)-1H-pyrazole-5-carboxamide]	≤ 100
C[S@](=N)(=O)c1cccc(NC(=O)c2c(C(F)(F)F)c(C3(F)CC3)nn2CC2C[C@@H]2C(F)(F)F)c1 (single isomer, unassigned) [Example 134b, 3-(1-Fluorocyclopropyl)-N-(3-(S-methylsulfonimidoyl)phenyl)-4-(trifluoromethyl)-1-(((trans)-2-(trifluoromethyl)cyclopropyl)methyl)-1H-pyrazole-5-carboxamide]	≤ 100
CC1(Cn2nc(C34CC(F)(C3)C4)c(C(F)(F)F)c2C(=O)Nc2ccc(F)c(S(C)(=N)=O)c2)CC(F)(F)C1 (single isomer, unassigned) [Example 141a, 1-((3,3-Difluoro-1-methylcyclobutyl)methyl)-N-(4-fluoro-3-(S-methylsulfonimidoyl)phenyl)-3-(3-fluorobicyclo[1.1.1]pentan-1-yl)-4-(trifluoromethyl)-1H-pyrazole-5-carboxamide]	≤ 100
CC1(Cn2nc(C3(C(F)F)CC3)c(C(F)(F)F)c2C(=O)Nc2ccnc(S(C)(=N)=O)c2)CC(F)(F)C1 (single isomer, unassigned) [Example 145a, 1-((3,3-Difluoro-1-methylcyclobutyl)methyl)-3-(1-(difluoromethyl)cyclopropyl)-N-(2-(S-methylsulfonimidoyl)pyridin-4-yl)-4-(trifluoromethyl)-1H-pyrazole-5-carboxamide]	≤ 100
C[S@](=N)(=O)c1cc(NC(=O)c2c(C(F)(F)F)c(C3CC3)nn2C[C@H]2C(F)(F)C23CC3)ccn1 (single isomer, unassigned) [Example 79b, 3-cyclopropyl-1-((2,2-difluorospiro[2.2]pentan-1-yl)methyl)-N-(2-(S-methylsulfonimidoyl)pyridin-4-yl)-4-(trifluoromethyl)-1H-pyrazole-5-carboxamide]	≤ 100
CS(=N)(=O)c1cc(NC(=O)c2c(C(F)(F)F)c(C3CC3)nn2CC2C3(CC3)C23CC3)ccn1 (single isomer, unassigned) [Example 80b, 3-cyclopropyl-1-(dispiro[2.0.24.13]heptan-7-ylmethyl)-N-(2-(S-methylsulfonimidoyl)pyridin-4-yl)-4-(trifluoromethyl)-1H-pyrazole-5-carboxamide]	≤ 100
Cc1c(C(C)(F)F)nn(CC2(C)CCC(F)(F)CC2)c1C(=O)Nc1ccnc(S(C)(=N)=O)c1 (single isomer, unassigned) [Example 11b, 1-((4,4-difluoro-1-methylcyclohexyl)methyl)-3-(1,1-difluoroethyl)-4-methyl-N-(2-(S-methylsulfonimidoyl)pyridin-4-yl)-1H-pyrazole-5-carboxamide]	≤ 100
C[C@]1(Cn2nc(C3CC3)c(C(F)(F)F)c2C(=O)Nc2ccnc([S@](C)(=N)=O)c2)CC(F)(F)C12CC2 (single isomer, unassigned) [Example 92a, 3-cyclopropyl-1-((6,6-difluoro-4-methylspiro[2.3]hexan-4-yl)methyl)-N-(2-(S-methylsulfonimidoyl)pyridin-4-yl)-4-(trifluoromethyl)-1H-pyrazole-5-carboxamide]	≤ 100
CC1(Cn2nc(C34CC(F)(C3)C4)c(C(F)F)c2C(=O)Nc2ccc(F)c(S(C)(=N)=O)c2)CC(F)(F)C1 (single isomer, unassigned) [Example 138a, 1-((3,3-Difluoro-1-methylcyclobutyl)methyl)-4-(difluoromethyl)-N-(4-fluoro-3-(S-methylsulfonimidoyl)phenyl)-3-(3-fluorobicyclo[1.1.1]pentan-1-yl)-1H-pyrazole-5-carboxamide]	≤ 100
CC1(Cn2nc(C34CC(C3)C4(F)F)c(C(F)(F)F)c2C(=O)Nc2ccnc(S(C)(=N)=O)c2)CC(F)(F)C1 (single isomer, unassigned) [Example 114, 1-((3,3-Difluoro-1-methylcyclobutyl)methyl)-3-(2,2-difluorobicyclo[1.1.1]pentan-1-yl)-N-(2-(S-methylsulfonimidoyl)pyridin-4-yl)-4-(trifluoromethyl)-1H-pyrazole-5-carboxamide]	≤ 100
CC1(Cn2nc(C3CCCC3)c(C(F)(F)F)c2C(=O)Nc2ccnc(S(C)(=N)=O)c2)CC(F)(F)C1 (single isomer, unassigned) [Example 59b, 3-Cyclopentyl-1-((3,3-difluoro-1-methylcyclobutyl)methyl)-N-(2-(S-methylsulfonimidoyl)pyridin-4-yl)-4-(trifluoromethyl)-1H-pyrazole-5-carboxamide]	≤ 100
CC1(Cn2nc(C3(F)CC3)c(C(F)(F)F)c2C(=O)Nc2ccnc(S(C)(=N)=O)c2)CC(F)(F)C1 (single isomer, unassigned) [Example 70b, 1-((3,3-Difluoro-1-methylcyclobutyl)methyl)-3-(1-fluorocyclopropyl)-N-(2-(S-methylsulfonimidoyl)pyridin-4-yl)-4-(trifluoromethyl)-1H-pyrazole-5-carboxamide]	≤ 100
Cc1c(C(C)(F)F)nn(CC2(C)CC(F)(F)C2)c1C(=O)Nc1ccnc(S(C)(=N)=O)c1 (single isomer, unassigned) [Example 5b, 1-((3,3-difluoro-1-methylcyclobutyl)methyl)-3-(1,1-difluoroethyl)-4-methyl-N-(2-(S-methylsulfonimidoyl)pyridin-4-yl)-1H-pyrazole-5-carboxamide]	≤ 100
Cc1c(C(C)(F)F)nn(C[C@H]2C[C@@H](C(F)(F)F)C2)c1C(=O)Nc1ccnc(S(C)(=N)=O)c1 (single isomer, unassigned) [Example 31a, 3-(1,1-difluoroethyl)-4-methyl-N-(2-(S-methylsulfonimidoyl)pyridin-4-yl)-1-(((cis)-3-(trifluoromethyl)cyclobutyl)methyl)-1H-pyrazole-5-carboxamide]	≤ 100
CC1(Cn2nc(C3(F)CC3)c(C(F)(F)F)c2C(=O)Nc2cc(F)cc(S(C)(=N)=O)c2)CC(F)(F)C1 (single isomer, unassigned) [Example 127a, 1-((3,3-Difluoro-1-methylcyclobutyl)methyl)-N-(3-fluoro-5-(S-methylsulfonimidoyl)phenyl)-3-(1-fluorocyclopropyl)-4-(trifluoromethyl)-1H-pyrazole-5-carboxamide]	≤ 100
CS(=N)(=O)c1cc(NC(=O)c2c(C(F)(F)F)c(C3CC3)nn2CC23CC2CC(F)(F)C3)ccn1 (single isomer, unassigned) [Example 95a, 3-Cyclopropyl-1-((3,3-difluorobicyclo[3.1.0]hexan-1-yl)methyl)-N-(2-(S-methylsulfonimidoyl)pyridin-4-yl)-4-(trifluoromethyl)-1H-pyrazole-5-carboxamide]	≤ 100
